{
  "source": "patent US20140106015A1",
  "about": "“COMPOSITION CONTAINING HEAT-TREATED POWDER OR EXTRACT OF GLYCINE SOJA AS ACTIVE GRADIENT FOR PREVENTION AND TREATMENT OF DIABETES MELLITUS AND DIABETIC COMPLICATIONS” (KOC BIOTEC CO LTD, priority 2011, published 2014)",
  "format_in_all_cases": "in vivo, mouse",
  "key": {"[1]": {"tested_on": "BKS.Cg-m+/+ Leprdb/J homozygous diabetic (db/db) mice", "test": "Experimental Example 5: efficacy comparison with anthocyanins, pinitol, banaba/Cr complex in db/db mice", "method": "“Pinitol”: Product containing 95% or more of pinitol (Sigma-Aldrich) “Banaba/Cr complex”: Wellness Banaba Gold ChromeTM (containing 400 mg/g banaba leaf extract, 200 mg/g indigestible maltodextrin and 0.1 mg/g chromium) Male db/db mice, aged 3 weeks, were acclimatized to an animal breeding room for 1 week. 4 mice were assigned to each experimental group. […] All animals were fasted for 6 h from 9 a.m. to 3 p.m. every Wednesday. Blood samples were collected from the mouse tail vein and blood glucose levels were measured using a portable blood glucose meter (OneTOUCH@Ultra, Johnson & Johnson, USA). […] The following are a total of 8 experimental groups used. Classification of Experimental Groups • NC: […] After the drug (test material) was administered to each experimental group for 6 weeks, abdominal, epididymal, and inguinal adipose tissues were excised from each experimental animal. The total weight of the adipose tissues was measured. […] For the autopsy, each animal was fasted for 12 h. […] After plasma was separated, the levels of total cholesterol, high-density lipoprotein (HDL) cholesterol, low-density lipoprotein (LDL) cholesterol, triglyceride, BUN, and phospholipid in the plasma were measured using an automatic biochemical analyzer (Hitachi-720, Hitachi Medical, Japan). […] The levels of glucose and insulin in the serum were analyzed. Plasma was obtained as a sample in the same manner. The plasma insulin level was measured using a Mouse Insulin ELISA kit (Shibayagi, Japan) and an ELISA reader (Labsystems, Finland). Data obtained from the above experiments were expressed as mean±standard error and significance assay was determined using Student's T-test."}, "db/db mice [2]": {"tested_on": "db/db mice", "test": "Experimental Example 2: glycine soja streamed powder versus metformin in db/db mice, 6 weeks oral", "details": "age of 10 weeks", "method": "The glycine soja streamed powder (DC) was diluted with physiological saline and the dilution was orally administered in divided portions (each 0.2 ml) at 10 a.m. and 4 p.m. daily using a mouse sonde (2 g/kg/day). Metformin (1,1-dimethylbiguanide), which is a widely used hypoglycemic agent, was chosen as positive control. Metformin was dissolved in 0.25% carboxymethylcellulose (CMC) and administered orally in two divided portions (each 0.2 ml) in the same manner (150 mg/kg/day). The same amount of physiological saline as negative control was administered in the same manner. A general bean streamed powder was used as another comparative test group. The bean streamed powder was obtained in the same manner as in Example 1, except that bean was used instead of glycine soja. The bean streamed powder was administered orally twice a day in the same amount and manner as the glycine soja streamed powder (DC).\nMale db/db mice, aged 3 weeks, were acclimatized to an animal breeding room for 1 week. 6 mice were assigned to each experimental group. The blood glucose levels of the animals were measured from the age of 4 weeks at intervals of 1 week for a total of 6 weeks. Drug was administered orally in divided portions (each 0.2 ml) at 10 a.m. and 4 p.m. daily using a mouse sonde. All animals were fasted for 6 h from 9 a.m. to 3 p.m. every Wednesday. Blood samples were collected from the mouse tail vein and blood glucose levels were measured using a portable blood glucose meter (OneTOUCH@Ultra. Johnson & Johnson, USA). Since serum for final biochemical analysis requires blood sampling after fasting for at least 12 h, blood glucose levels were measured at the final 8th week. 2 days after the measurement, an autopsy was conducted. For the autopsy, all animals were fasted for 12 h. Blood samples were drawn from the heart under ether anesthesia, put in tubes for serum separation, and centrifuged at 3000 rpm for 20 min to obtain serum samples, which were used as samples for the analysis of biochemical indices.\nExperimental Group Classification • Control (db/db mice) (n=6) • Positive control (Metformin, 150 mg/kg/day, o.p) (n=6) • Glycine soja streamed powder (DC) (2.0 g/kg/day, o.p) (n=6) • Bean powder (2.0 g/kg/day, o.p) (n=6)\nAfter a test material was administered to each experimental group for 6 weeks, blood glucose level was measured at the final 8th week. 2 days after the measurement, an autopsy was conducted. For the autopsy, each animal was fasted for 12 h. Blood was drawn from the heart under ether anesthesia, put in a tube for serum separation, and centrifuged at 3000 rpm for 20 min to obtain serum, which was used as a sample for the analysis of biochemical indices. The glucose and insulin levels of the serum were analyzed. Changes in the insulin level and insulin resistance index (HOMAIR) of each experimental group during administration for 8 weeks period were calculated by the following formulae. Plasma was obtained as a sample in the same manner. The level of insulin in the plasma was measured using a Mouse Insulin ELISA kit (Shibayagi, Japan) and an ELISA reader (Labsystems, Finland).\nAfter a test material was administered to each experimental group for 6 weeks, abdominal, epididymal, and inguinal adipose tissues were excised from each experimental animal. The total weight of the adipose tissues was measured.\nBlood was obtained in the same manner as in 1-3, put in a tube for serum separation, and centrifuged at 3000 rpm for 20 min to obtain serum, which was used as a sample for the analysis of biochemical indices. Total cholesterol, high-density lipoprotein (HDL) cholesterol, low-density lipoprotein (LDL) cholesterol, triglyceride, and phospholipid levels, which are indices of lipid contents in plasma and liver, in the plasma were measured using an automatic biochemical analyzer (Hitachi-720, Hitachi Medical, Japan). […]"}, "db/db mice [3]": {"tested_on": "db/db mice", "test": "Experimental Example 2: glycine soja streamed powder versus metformin in db/db mice, 6 weeks oral", "details": "age of 10 weeks, fasted about 16 h, DC and bean powder 2 g/kg/day, metformin 150 mg/kg/day"}, "[4]": {"details": "db/db mice, 100 mg/kg/day, BANABA 300 mg/kg/day"}, "[5]": {"details": "DC and bean powder 2 g/kg/day, metformin 150 mg/kg/day"}, "[6]": {"details": "metformin 150 mg/kg/day, bean powder 2 g/kg/day"}},
  "data": [
    {"smiles": "CO[C@H]1[C@H](O)[C@@H](O)[C@@H](O)[C@H](O)[C@@H]1O", "note": "[Pinitol, pinitol]", "values": [
      {"measurement": "serum BUN level higher than non-treated group", "setting": "[1]; No. 4 mouse of the Pinitol-administered group", "result": "≥ 3", "unit": "times"},
      {"measurement": "serum BUN level", "setting": "[1]; No. 4 mouse of the Pinitol-administered group, 100 mg/kg/day, NC 30.2 mg/dL", "result": 92.8, "unit": "mg/dL"},
      {"measurement": "blood glucose level", "setting": "[1]; db/db mice, 9th week, tail vein, fasted 6 h, oral 6 weeks, 100 mg/kg/day, BANABA 300 mg/kg/day", "result": 231.8, "unit": "mg/dL"},
      {"measurement": "blood glucose level lower than NC (hypoglycemic efficacy)", "setting": "[1]; db/db mice, 9th week, 100 mg/kg/day, BANABA 300 mg/kg/day", "result": 52.1, "unit": "%"},
      {"measurement": "daily food intake compared with non-treated group", "setting": "[1]; db/db mice, after completion of the tests", "result": "smaller"},
      {"measurement": "serum low-density lipoprotein cholesterol level compared with non-treated group", "setting": "[1]; db/db mice, age of 9 weeks", "result": "not substantially different"},
      {"measurement": "serum insulin level", "setting": "[1]; db/db mice, age of 9 weeks, 100 mg/kg/day, BANABA 300 mg/kg/day", "result": 6.6, "unit": "ng/mL"},
      {"measurement": "serum insulin level lower than NC (suppressive efficacy on insulin resistance)", "setting": "[1]; db/db mice, age of 9 weeks, NC 10.2 ng/ml", "result": 35.3, "unit": "%"},
      {"measurement": "serum triglyceride (TG) level relative to non-treated group (NC)", "setting": "[1]; db/db mice, age of 9 weeks, NC 22 mg/dL", "result": "approximately twice"},
      {"measurement": "serum total cholesterol level compared with non-treated group", "setting": "[1]; db/db mice, age of 9 weeks, NC 168.3 mg/dL", "result": "not substantially different"},
      {"measurement": "adipose tissue weight lower than non-treated group (NC)", "setting": "[1]; db/db mice, age of 10 weeks", "result": "about 5.4%"},
      {"measurement": "liver tissue weight compared with NC", "setting": "[1]; db/db mice, age of 10 weeks", "result": "not substantially different"},
      {"measurement": "liver tissue weight lower than non-treated group (NC)", "setting": "[1]; db/db mice, age of 10 weeks, p<0.05", "result": "about 7.0%"},
      {"measurement": "food efficiency ratio compared with non-treated group", "setting": "[1]; db/db mice, for 5 weeks", "result": "similar"},
      {"measurement": "Food efficiency ratio (PER, %)", "setting": "[1]; db/db mice, for 5 weeks, calculated from food intakes and body weight gains", "result": "11.9 ± 1.28", "unit": "%"},
      {"measurement": "Body weight gain", "setting": "[1]; [4]", "result": "0.500 ± 0.05", "unit": "g/day"},
      {"measurement": "Food intake", "setting": "[1]; [4]", "result": 4.20, "unit": "g/day"}
    ]},
    {"smiles": "CN(C)C(=N)NC(=N)N", "note": "[metformin, 1,1-dimethylbiguanide]", "values": [
      {"measurement": "serum high-density lipoprotein cholesterol level compared with non-administered group", "setting": "db/db mice [2]", "result": "no significant differences"},
      {"measurement": "serum triglyceride level lower than non-administered group (NC)", "setting": "db/db mice [2]; DC 2 g/kg/day, metformin 150 mg/kg/day", "result": 38.8, "unit": "%"},
      {"measurement": "serum ALT level", "setting": "db/db mice [2]; [5]", "result": 54.9, "unit": "U/L"},
      {"measurement": "serum AST level", "setting": "db/db mice [2]; [5]", "result": 120.0, "unit": "U/L"},
      {"measurement": "serum glucose level lower than non-administered group", "setting": "db/db mice [2]; [5]", "result": 34.6, "unit": "%"},
      {"measurement": "serum triglyceride (TG) level", "setting": "db/db mice [2]; [5]", "result": 78.8, "unit": "mg/dL"},
      {"measurement": "serum total cholesterol level compared with non-administered group", "setting": "db/db mice [2]; metformin 150 mg/kg/day", "result": "low compared to that of the non-administered group, but there was no statistical significance"},
      {"measurement": "serum insulin level compared with non-administered group", "setting": "db/db mice [2]; [6]", "result": "slightly lower than the serum insulin level of the non-administered group, but there were no statistical significances"},
      {"measurement": "serum low-density lipoprotein cholesterol level compared with non-administered group", "setting": "db/db mice [2]; [6]", "result": "low compared to the low-density lipoprotein cholesterol level of the non-administered group, but there were no statistical significances"},
      {"measurement": "blood glucose level lower than non-administered group (NC)", "setting": "db/db mice [2]; oral 6 weeks, DC and bean powder 2 g/kg/day, metformin 150 mg/kg/day", "result": 34.6, "unit": "%"},
      {"measurement": "serum glucose level", "setting": "db/db mice [3]", "result": 376.0, "unit": "mg/dL"}
    ]}
  ]
}
